Our source for the IC50 values is EP4647433A1, “SHP2 INHIBITOR AND USES THEREOF” (Kanaph Therapeutics Inc., priority 2023, dated 2024).

The structures appear in SMILES notation. pIC50: −log10 of the molar value. Like-named read-outs stand apart in the source and are kept apart here.

One experiment addresses T1, SHP2 (Homo sapiens, UniProt Q06124).
T1 construct: SHP2 (full length, diluted to 100 pM final concentration in reaction buffer, BPS bioscience, US); purchased BPS bioscience, US
T1 sequence (Q06124 1-593): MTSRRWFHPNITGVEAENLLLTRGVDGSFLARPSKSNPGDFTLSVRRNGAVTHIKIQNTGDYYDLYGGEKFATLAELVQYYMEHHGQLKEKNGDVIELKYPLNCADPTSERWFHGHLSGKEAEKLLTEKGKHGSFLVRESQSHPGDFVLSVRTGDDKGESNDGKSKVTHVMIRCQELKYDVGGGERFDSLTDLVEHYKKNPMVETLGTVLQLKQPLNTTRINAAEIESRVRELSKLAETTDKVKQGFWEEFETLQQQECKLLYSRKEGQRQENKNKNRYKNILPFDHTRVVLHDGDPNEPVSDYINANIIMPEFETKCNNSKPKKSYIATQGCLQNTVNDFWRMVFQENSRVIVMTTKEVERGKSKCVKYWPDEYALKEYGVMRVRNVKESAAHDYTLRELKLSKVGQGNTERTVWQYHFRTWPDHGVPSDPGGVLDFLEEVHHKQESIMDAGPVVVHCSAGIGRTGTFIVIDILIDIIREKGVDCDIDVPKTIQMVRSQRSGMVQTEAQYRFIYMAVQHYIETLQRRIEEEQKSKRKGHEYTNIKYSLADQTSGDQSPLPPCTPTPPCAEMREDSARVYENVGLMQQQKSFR
The experiment can be described thus: Phosphatase assay (PTPase assay, DiFMUP substrate). The format is biochemical. On the procedure: IC50 values were measured using 6,8-difluoro-4-methylumbelliferyl phosphate (DiFMUP) as a substrate. The reaction was performed in a 384-well plate, and fluorescence measurement values were obtained using an EnVision plate reader from PerkinElmer.
SHP2 (full length, diluted to 100 pM final concentration in reaction buffer, BPS bioscience, US) was incubated with the SHP2 activating peptide in reaction buffer (60 mM HEPES (pH 7.2), 75 mM NaCl, 75 mM KCl, 1 mM EDTA, 5 mM DTT, 0.05% P-20) for 30 minutes to activate SHP2. After activation, DMSO [1% (V/V) or the compound according to the Examples (concentration ranging from 0.6 nM to 10 µM)] was added. As a positive control group, the selective SHP2 inhibitors SHP099 (6-(4-amino-4-methylpiperidin-1-yl)-3-(2,3-dichlorophenyl)pyrazin-2-amine, FOCUS bioscience, Austrailia; concentration ranging from 0.6 nM to 10 µM) and TNO155 ((3S,4S)-8-(6-amino-5-((2-amino-3-chloropyridin-4-yl)thio)pyrazin-2-yl)-3-methyl-2-oxa-8-azaspiro[4.5]decan-4-amine, Chemietek, US; concentration ranging from 0.6 nM to 10 µM) were used. [drawing 184]
DiFMUP (80 µM) was added to the reaction and incubated for a total of 2 hours to allow for the reaction to proceed. Thereafter, fluorescence (340 nm excitation, 450 nm emission) values were measured. IC50 values were obtained using Graphad's Prism from the measured values depending on the concentration.
In the phosphatase assay (PTPase assay), when an IC50 value was 100 nM or more, + was indicated, when an IC50 value was 3 nM or more and less than 100 nM, ++ was indicated, and when an IC50 value was less than 3 nM, +++ was indicated.

In another experiment the test system is phospho-ERK. The experiment can be described thus: phospho-ERK assay (AlphaLisa) in H358 cells. Conditions: Homo sapiens, NCI-H358, 1.5 hours incubation, read-out: pERK assay (IC50). The format is cell-based. The protocol: H358 [20,000 cell/well] was contained in 40 µL of the cell culture solution (RPMI, 10% FBS, penicillin, streptomycin) and placed on a 384-well plate. After 24 hours, the serially diluted compound according to the Examples (concentration of minimum 0.13 nM, maximum 10 µM) was contained in 10 µL of the cell culture solution, put into wells containing cells, and incubated in a cell incubator for 1.5 hours. As a positive control group, the selective SHP2 inhibitor, TNO155 (Chemietek, US; concentration ranging from 0.13 nM to 10 µM) was used.
Thereafter, phospho-ERK was labeled using an AlphaLisa system from PerkinElmer according to the manufacturer's instructions, and then fluorescence (680 nm excitation wavelength, 615 nm emission wavelength) values were measured using a Varioskan equipment from Thermo. IC50 values were obtained using Graphad's Prism from the measured values depending on the concentration.
Intracellular SHP2 activity can be confirmed by measuring the degree of phosphorylation of ERK (extracellular signal regulated kinase), which represents Ras/Raf/ERK, a downstream signal pathway of SHP2. Inhibition of ERK phosphorylation by SHP2 inhibitors was confirmed through phospho-ERK analysis, which confirmed that the SHP2 inhibitors of the present disclosure have excellent activity in inhibiting ERK phosphorylation mediated by SHP2.
For orientation: Alpha assays give light when donor and acceptor beads are brought close together.

The test system of the next experiment is H358 cells. The experiment can be described thus: Cell viability (3D spheroid, 3D CellTiter-Glo). It counts as cell-based. Conditions: Homo sapiens, NCI-H358, 120 h; H358 spheroids, 5 days treatment. The protocol: Human non-small cell lung cancer cell line H358 cells were purchased from the Korean Cell Line Bank. Cancer cell lines were cultured in the recommended RPMI-1640 medium supplemented with 10% fetal bovine serum (FBS) and 1% penicillin/streptomycin. Monolayer-cultured cancer cell lines were detached by treatment with Trypsin/EDTA, and 100 µL of cell suspension containing 4 x 10^3 cells was each dispensed into SPL3D™ Cell Floater, 96-well round plate, through cell line counting. After culturing for 72 hours to form spheroid, the cells were individually treated with the compounds according to the Examples, which had been serially diluted (minimum 1.5 nM, maximum 10 µM in concentration), and then cultured in a cell incubator for 5 days. To analyze cell viability, the cells were treated with 50 uL of 3D CellTiter-Glo, stirred for 5 minutes at 500 rpm in a plate shaker from Thermo Fisher Scientific, and incubated for 25 minutes at room temperature. Then, the luminescent values were measured using a Varioskan equipment from Thermo Fisher Scientific. IC50 values were obtained using GraphPad's Prism from the measured values depending on the concentration.
In the cell viability assay, when an IC50 value was 50 nM or more, + was indicated, when an IC50 value was 10 nM or more and less than 50 nM, ++ was indicated, and when an IC50 value was less than 10 nM, +++ was indicated.
A general note: ATP-based viability assays read luminescence as a measure of living cells.

[1] abbreviates: full length SHP2 100 pM activated with SHP2 activating peptide, DiFMUP 80 µM, 2 hours, read-out: PTPase assay (IC50).

In general, pIC50 refers to the negative decadic logarithm of the IC50, by convention in mol/L. Regarding `N[C@@H]1c2scnc2CC12CCN(c1cnc(Sc3ccc4nc[nH]c(=O)c4c3Cl)cn1)CC2` [Example 1, (S)-6-((5-(6-amino-4,6-dihydrospiro[cyclopenta[d]thiazole-5,4'-piperidin]-1'-yl)pyrazin-2-yl)thio)-5-chloroquinazolin-4(3H)-one], the pIC50 at SHP2 (setting [1]) is more than 8.52; with phospho-ERK it was more than 7.35.
For the compound `Cn1cnc2ccc(Sc3cnc(N4CCC5(CC4)Cc4ncsc4[C@H]5N)cn3)c(Cl)c2c1=O` [Example 2, (S)-6-((5-(6-amino-4,6-dihydrospiro[cyclopenta[d]thiazole-5,4'-piperidin]-1'-yl)pyrazin-2-yl)thio)-5-chloro-3-methylquinazolin-4(3H)-one], the pIC50 on SHP2 (read-out: PTPase assay (IC50), full length SHP2 100 pM activated with SHP2 activating peptide, DiFMUP 80 µM, 2 hours) was more than 8.52; with phospho-ERK, more than 7.35; in the experiment on H358 cells it was more than 8.00.
In the case of `Cn1cnc2ccc(Sc3cnc(N4CCC5(CC4)Cc4ncccc4[C@H]5N)cn3)c(Cl)c2c1=O` [Example 6, (S)-6-((5-(5-amino-5,7-dihydrospiro[cyclopenta[b]pyridine-6,4'-piperidin]-1'-yl)pyrazin-2-yl)thio)-5-chloro-3-methylquinazolin-4(3H)-one], the negative logarithm of the IC50 (pIC50) on SHP2 (setting [1]) is more than 8.52; in the experiment with H358 cells it was more than 8.00.
Turning to `COCCn1cnc2ccc(Sc3ncc(N4CCC5(CC4)Cc4ccccc4[C@H]5N)nc3N)c(Cl)c2c1=O` [Example 8, (S)-6-((3-amino-5-(1-amino-1,3-dihydrospiro[indene-2,4'-piperidin]-1'-yl)pyrazin-2-yl)thio)-5-chloro-3-(2-methoxyethyl)quinazolin-4(3H)-one], the pIC50 is more than 8.52 on SHP2 (setting [1]) and more than 7.35 in the experiment with phospho-ERK.
In the same order, the values of `COC(C)Cn1cnc2ccc(Sc3ncc(N4CCC5(CC4)Cc4ccccc4[C@H]5N)nc3N)c(Cl)c2c1=O` (stereo partly drawn) [Example 9, 6-((3-amino-5-((S)-1-amino-1,3-dihydrospiro[indene-2,4'-piperidin]-1'-yl)pyrazin-2-yl)thio)-5-chloro-3-(2-methoxypropyl)quinazolin-4(3H)-one] are more than 8.52 and more than 7.35.
For `Cn1cnc2ccc(Sc3ncc(N4CCC5(CC4)Cc4ccccc4[C@H]5N)nc3N)c(Cl)c2c1=O` [Example 10], in that order: more than 8.52 and more than 7.35.
In the case of `CC(C)(O)Cn1cnc2ccc(Sc3ncc(N4CCC5(CC4)Cc4ccccc4[C@H]5N)nc3N)c(Cl)c2c1=O` [Example 11, (S)-6-((3-amino-5-(1-amino-1,3-dihydrospiro[indene-2,4'-piperidin]-1'-yl)pyrazin-2-yl)thio)-5-chloro-3-(2-hydroxy-2-methylpropyl)quinazolin-4(3H)-one], the pIC50 was more than 8.52 on SHP2 (setting [1]) and more than 8.00 with H358 cells.
`COC(C)Cn1ccc2ccc(Sc3cnc(N4CCC5(CC4)CO[C@@H](C)[C@H]5N)cn3)c(Cl)c2c1=O` (stereo partly drawn) [Example 14, 7-((5-((3S,4S)-4-amino-3-methyl-2-oxa-8-azaspiro[4.5]decan-8-yl)pyrazin-2-yl)thio)-8-chloro-2-(2-methoxypropyl)isoquinolin-1(2H)-one]: the pIC50 on SHP2 (setting [1]) was more than 8.52; in the experiment on H358 cells it was more than 8.00.
For `Cn1cnc2ccc(Sc3cnc(N4CCC5(CC4)Cc4ncsc4[C@H]5N)cn3)cc2c1=O` [Example 17, (S)-6-((5-(6-amino-4,6-dihydrospiro[cyclopenta[d]thiazole-5,4'-piperidin]-1'-yl)pyrazin-2-yl)thio)-3-methylquinazolin-4(3H)-one], in that order: more than 8.52 and more than 8.00.
Regarding `C[C@@H]1OCC2(CCN(c3cnc(Sc4ccc5ncn(CC6(C)CCOCC6)c(=O)c5c4Cl)cn3)CC2)[C@@H]1N` [Example 23, 6-((5-((3S,4S)-4-amino-3-methyl-2-oxa-8-azaspiro[4.5]decan-8-yl)pyrazin-2-yl)thio)-5-chloro-3-((4-methyltetrahydro-2H-pyran-4-yl)methyl)quinazolin-4(3H)-one], the figures for the pIC50 at SHP2 (setting [1]) and in the experiment with H358 cells were more than 8.52 and 7.30 to 8.00, respectively.
Regarding `C[C@@H]1OCC2(CCN(c3cnc(Sc4ccc5ncn(CCC#N)c(=O)c5c4Cl)cn3)CC2)[C@@H]1N` [Example 24, 3-(6-((5-((3S,4S)-4-amino-3-methyl-2-oxa-8-azaspiro[4.5]decan-8: yl)pyrazin-2-yl)thio)-5-chloro-4-oxoquinazolin-3(4H)-yl)propanenitrile], the pIC50 against SHP2 was more than 8.52; with H358 cells, 7.30 to 8.00.
Turning to `C[C@@H]1OCC2(CCN(c3cnc(Sc4ccc5ncn(CC6CCN(C)CC6)c(=O)c5c4Cl)cn3)CC2)[C@@H]1N` [Example 26, 6-((5-((3S,4S)-4-amino-3-methyl-2-oxa-8-azaspiro[4.5]decan-8-yl)pyrazin-2-yl)thio)-5-chloro-3-((1-methylpiperidin-4-yl)methyl)quinazolin-4(3H)-one], the pIC50 on SHP2 (setting [1]) was 7.00 to 8.52; in the experiment with H358 cells, more than 8.00.
For `CC(C)n1ccc2ccc(Sc3cnc(N4CCC5(CC4)Cc4ncsc4[C@H]5N)cn3)c(Cl)c2c1=O` [Example 40, (S)-7-((5-(6-amino-4,6-dihydrospiro[cyclopenta[d]thiazole-5,4'-piperidin]-1'-yl)pyrazin-2-yl)thio)-8-chloro-2-isopropylisoquinolin-1(2H)-one], in that order: 7.00 to 8.52 and more than 8.00.
For `COC(C)Cn1ccc2ccc(Sc3cnc(N4CCC5(CC4)Cc4ccccc4[C@H]5N)cn3)c(Cl)c2c1=O` (stereo partly drawn) [Example 42, 7-((5-((S)-1-amino-1,3-dihydrospiro[indene-2,4'-piperidin]-1'-yl)pyrazin-2-yl)thio)-8-chloro-2-(2-methoxypropyl)isoquinolin-1(2H)-one], the pIC50 at SHP2 (setting [1]) was more than 8.52; in the experiment with H358 cells it was more than 8.00.
For `CC(C)n1ccc2ccc(Sc3cnc(N4CCC5(CC4)CO[C@@H](C)[C@H]5N)cn3)c(Cl)c2c1=O` [Example 46, 7-((5-((3S,4S)-4-amino-3-methyl-2-oxa-8-azaspiro[4.5]decan-8-yl)pyrazin-2-yl)thio)-8-chloro-2-isopropylisoquinolin-1(2H)-one], in that order: more than 8.52 and 7.30 to 8.00.
